Results as given in patent US11357777B2, “Use of sGC stimulators for the treatment of nonalcoholic steatohepatitis (NASH)” (Cyclerion Therapeutics, Inc., priority 2016, dated 2022).
Read-outs that look alike come from different tables or passages of the source.

Tests used:
[1] = Single ascending dose Phase I study in healthy volunteers; type: in vivo, human; details: oral capsule, top-line clinical data
Text: In a randomized, double-blind, placebo-controlled, single ascending dose Phase I study enrolling 46 healthy volunteers, participants were randomized 3:1 to receive a single dose of Compound B or placebo administered via an oral capsule.

[2] = Distribution of sGC stimulators in tissues, rats (liver and plasma by LC-MS/MS); type: in vivo; details: Wistar, rat, 2 h post fifth dose, male rats, read-out: total Liver:Plasma ratio
Experimental: The purpose of this experiment was to determine compound concentrations in the plasma and tissues of animals dosed with sGC stimulators for 5 days Q.D.
In a first experiment, the sGC stimulator Compound B (described previously in Example 2) was dosed for 5 Days Q.D. to male Wister rats. Rats were divided into four study groups and dosed according to the below table:
The animals were dosed daily for five consecutive days according the table above. On each day of dosing, frozen aliquots of each dosing solution were thawed and the animals were weighed and dosed accordingly. On day 5, two hours post the fifth dose, blood was collected by orbital bleed. Blood samples were collected in EDTA tubes pre-loaded with 5 μL of 100 mM IBMX Plasma was be separated by centrifugation for 10 minutes at 4° C. and then stored at −80° C.
A Ketamine/Xylazine/pbs solution as a 5:1:4 ratio was administered I.P. at 1 ul per gram. Once the rat was fully anesthetized (as determined by checking its reflexes) and while the heart was still beating, a needle was inserted into the left ventricle. Approximately 20 mls of PBS/IBMX/heparin solution were then perfused. The right atrium was snipped, and perfusion continued for approximately 10 additional mls (30 mls total). At this point, the femoral artery was snipped and perfusion was continued until there was no longer blood (only clear fluid) collecting in the abdominal cavity. Several tissues, including liver, were isolated and weighed followed by snap freezing.
A second separate and similar experiment was carried out with Compound C. The structure of Compound C is depicted below. The preparation and characterization of this compound was described in patent application publication WO2014144100, published 18 Sep. 2014.
For this second experiment, rats were divided into four study groups and dosed according to the below table:
Samples were analyzed using liquid chromatography (LC) with tandem mass spectrometric detection (MS/MS) using positive electrospray ionization. The standard curve range was from 0.1 to 400 ng/mL. […]
In order to prepare the tissues for measurement, the naïve livers and the livers isolated after treatment were removed from the −80° C. freezer and placed on liquid nitrogen. The liver weight was recorded and then the tissue placed in a Geno grinding vial containing two 7/16″ steel beads. […] Approximately 200 mg of tissue from each sample was weighed and recorded. […] The samples were analyzed by LC-MS/MS.
Total liver and plasma concentrations were measured and liver concentrations were corrected for total liver weight. Liver: Plasma ratios were determined by dividing liver compound concentration by the plasma compound concentration. […]

[3] = system: TNFα, IL-6 and IL-10 cytokine levels; test: LPS model of acute inflammation in mice; type: in vivo; details: 10 mg/kg oral gavage; LPS IV 1 h later; blood 2 h after LPS
Experimental: Acute murine models of inflammation have previously been described (see for example, Engelberts I et. al., Lymphokine Cytokine Res. 10(1-2):127-31 (1991) and Durez P et al., J Exp Med. 177:551-5 (1993)). In these models, mice or rats are administered the compound of interest followed by an injection of LPS (LPS stands for lipopolysaccharide, 100 ng IV administration) one hour later. LP S is a component of bacterial cell walls and elicits a rapid and strong systemic inflammatory response. Two hours after LPS injection, blood is collected, plasma and serum are isolated and cytokine levels are measured. The concentrations of TNFα and IL-6 in blood increase after stimulation with bacterial lipopolysaccharide (LP S). Measurement of cytokine production is carried out with either ELISA or cytokine bead assay (CBA).
The sGC stimulator Compound B was assessed in such an animal model using C57BL/6 mice. The structure of Compound B is depicted below:
The ability of Compound B to modulate cytokine release in vivo was assessed. Compound B was administered by oral gavage (formulated in methylcellulose as the carrier) at 1 and 10 mg/kg doses and the levels of the pro-inflammatory cytokines TNFα and IL-6 were measured, as well as the anti-inflammatory cytokine IL-10. Vehicle (V) and dexamethasone (dex, 5 mg/kg) were used as negative and positive controls, respectively, and 10 mice were used per group.

Kp ([2]; 1 mg/kg PO Q.D. 5 days): 19
Kp ([2]; 10 mg/kg PO Q.D. 5 days): 20
Compound: OC(CNc1nc(-c2cc(-c3ccon3)n(Cc3ccccc3F)n2)ncc1F)(C(F)(F)F)C(F)(F)F [Compound B]
distribution to tissues [1]: evidence of extensive distribution to tissues
levels of IL-6 [3]: significantly reduced
levels of IL-10 [3]: increasing
levels of TNFα [3]: significantly reduced
